For the assay, the target named is T1, hROMK (hKir1.1) (Homo sapiens, UniProt P48048).
T1 construct: expressed in transfected cells
T1 sequence (P48048 1-391): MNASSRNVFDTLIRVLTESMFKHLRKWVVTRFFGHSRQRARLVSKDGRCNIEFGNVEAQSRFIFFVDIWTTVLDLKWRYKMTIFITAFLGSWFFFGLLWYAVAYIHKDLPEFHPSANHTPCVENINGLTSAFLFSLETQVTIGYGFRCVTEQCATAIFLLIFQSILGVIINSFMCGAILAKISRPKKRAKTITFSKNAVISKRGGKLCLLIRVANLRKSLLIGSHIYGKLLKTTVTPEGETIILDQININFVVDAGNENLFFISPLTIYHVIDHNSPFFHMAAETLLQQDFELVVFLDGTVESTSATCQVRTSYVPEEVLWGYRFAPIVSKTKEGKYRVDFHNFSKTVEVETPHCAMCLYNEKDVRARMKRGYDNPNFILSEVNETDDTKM
The assay is described as follows: Thallium Flux Assay (ROMK channel functional thallium flux, FLIPR-Tetra). It counts as cell-based. To be noted: HEK293 cells stably expressing hROMK (hKir1.1); 30 min compound incubation. In a few lines:
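Thallium flux read by FluxOR fluorescence ([…]) for ~10 min after adding 3 mM Tl+/0.3 mM K+ final. Stable HEK-hKir1.1 cells were dye-loaded 90 min, exposed to compound 30 min at room temperature in ouabain/probenecid buffer; IC50 relative to a 3 μM control inhibitor.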
Usually IC50 stands for the concentration at which inhibition is half-maximal. A low value points to greater potency. `CC1=C(N2C(=O)C3(CCN(C[C@H](O)c4ccc(-n5cnnn5)nc4)CC3)CC2C)COC1=O` (single isomer, unassigned) [Example 66] returned an IC50 of 10 nM.

`CC1=C(N2CCC3(CCN(C[C@@H](O)c4ccc(-n5cnnn5)cc4F)CC3)C2=O)COC1=O` [Example 37, 8-{(2S)-2-[2-fluoro-4-(1H-tetrazol-1-yl)phenyl]-2-hydroxyethyl}-2-(4-methyl-5-oxo-2,5-dihydrofuran-3-yl)-1-oxo-2-aza-8-azoniaspiro[4.5]decane] gave an IC50 of 10 nM. Consider `CC1=C(N2CCC3(CCN(C[C@@H](O)c4ccc(-n5cnnn5)c(C)n4)CC3)C2=O)COC1=O` [Example 31, 8-{(2R)-2-hydroxy-2-[6-methyl-5-(1H-tetrazol-1-yl)pyridin-2-yl]ethyl}-2-(4-methyl-5-oxo-2,5-dihydrofuran-3-yl)-1-oxo-2-aza-8-azoniaspiro[4.5]decane], for which the IC50 worked out at 30 nM.

Consider `Cc1nc(-n2cnnn2)cnc1CCN1CCC2(CC1)C[C@H](C)N(C1=CC(=O)OC1)C2=O` [Example 261, (3S)-3-methyl-8-{2-[3-methyl-5-(1H-tetrazol-1-yl)pyrazin-2-yl]ethyl}-2-(5-oxo-2,5-dihydrofuran-3-yl)-2,8-diazaspiro[4.5]decan-1-one], for which the IC50 stood at 3 nM. As to `O=C1C=C(N2C(=O)C3(CCN(C[C@H](O)c4ccc(-n5cnnn5)nn4)CC3)CC2C2CC2)CO1` (mixture of isomers) [Example 210, 3-cyclopropyl-8-{(2S)-2-hydroxy-2-[6-(1H-tetrazol-1-yl)pyridazin-3-yl]ethyl}-2-(5-oxo-2,5-dihydrofuran-3-yl)-2,8-diazaspiro[4.5]decan-1-one], the IC50 is 70 nM. As to `CC1=C(N2CCC3(CCN(C[C@H](O)c4ncc(-n5cnnn5)nc4C)CC3)C2=O)COC1=O` [Example 98, 8-{(2S)-2-hydroxy-2-[3-methyl-5-(1H-tetrazol-1-yl)pyrazin-2-yl]ethyl}-2-(4-methyl-5-oxo-2,5-dihydrofuran-3-yl)-1-oxo-2-aza-8-azoniaspiro[4.5]decane], the IC50 is 40 nM.

As to `COC1CN(C[C@@H](O)c2ccc(-n3cnnn3)nc2)CCC12CCN(C1=C(C)C(=O)OC1)C2=O` (single isomer, unassigned) [Example 171], the IC50 amounted to 60 nM. Molecule `O=C1C=C(N2C=CC3(CCN(CCc4ccc(-n5cnnn5)nn4)CC3)C2=O)CO1` [Example 249, 1-oxo-2-(5-oxo-2,5-dihydrofuran-3-yl)-8-{2-[6-(1H-tetrazol-1-yl)pyridazin-3-yl]ethyl}-2-aza-8-azoniaspiro[4.5]dec-3-ene] registered an IC50 of 40 nM. Against the preceding molecule, the IC50 is about 1.5-fold lower. Molecule `CC1=C(N2CCC3(CCN(CCc4ccc(-n5cnnn5)nn4)CC3F)C2=O)COC1=O` (single isomer, unassigned) [Example 265, 6-fluoro-2-(4-methyl-5-oxo-2,5-dihydrofuran-3-yl)-8-{2-[6-(1H-tetrazol-1-yl)pyridazin-3-yl]ethyl}-2,8-diazaspiro[4.5]decan-1-one] gave an IC50 of 10 nM. This IC50 lies about 4-fold lower than the previous one.

For the molecule `CC1=C(N2CCC3(CCN(C[C@@H](F)c4ccc(-n5cnnn5)cn4)CC3)C2=O)COC1=O` [Example 280, 8-{(2R)-2-fluoro-2-[5-(1H-tetrazol-1-yl)pyridin-2-yl]ethyl}-2-(4-methyl-5-oxo-2,5-dihydrofuran-3-yl)-1-oxo-2-aza-8-azoniaspiro[4.5]decane], the IC50 came to 30 nM. The molecule `CC1=CN(C2=C(C)C(=O)OC2)C(=O)C12CCN(CCc1ccc(-n3cnnn3)nn1)CC2` [Example 253, 4-methyl-2-(4-methyl-5-oxo-2,5-dihydrofuran-3-yl)-1-oxo-8-{2-[6-(1H-tetrazol-1-yl)pyridazin-3-yl]ethyl}-2-aza-8-azoniaspiro[4.5]dec-3-ene] returned a half-inhibitory concentration (IC50) of 20 nM.

For `CC1=C(N2C=CC3(CCN(C[C@@H](O)c4nnc(-n5cnnn5)cc4C)CC3)C2=O)COC1=O` [Example 153, 8-{(2R)-2-hydroxy-2-[4-methyl-6-(1H-tetrazol-1-yl)pyridazin-3-yl]ethyl}-2-(4-methyl-5-oxo-2,5-dihydrofuran-3-yl)-1-oxo-2-aza-8-azoniaspiro[4.5]dec-3-ene], the IC50 is 40 nM.

On to `CC1=C(N2CCC3(CCN(C[C@H](O)c4ccc(-n5cnnn5)nc4C)CC3O)C2=O)COC1=O` (single isomer, unassigned) [Example 203], for which half-maximal inhibition (IC50) was put at 150 nM. `C[C@@H]1CC2(CCN(C[C@H](O)c3ccc(-n4cnnn4)nc3)CC2)C(=O)N1C1=CC(=O)OC1` [Example 83, (3R)-8-{(2R)-2-hydroxy-2-[6-(1H-tetrazol-1-yl)pyridin-3-yl]ethyl}-3-methyl-1-oxo-2-(5-oxo-2,5-dihydrofuran-3-yl)-2-aza-8-azoniaspiro[4.5]decane] showed an IC50 of 10 nM. This IC50 lies about 15-fold lower than the previous one.

In the case of `CC1=C(N2C=CC3(CCN(C[C@H](O)c4ccc(-n5cnnn5)nn4)CC3)C2=O)COC1=O` [Example 146, 8-{(2S)-2-hydroxy-2-[6-(1H-tetrazol-1-yl)pyridazin-3-yl]ethyl}-2-(4-methyl-5-oxo-2,5-dihydrofuran-3-yl)-1-oxo-2-aza-8-azoniaspiro[4.5]dec-3-ene], the midpoint of inhibition, the IC50, lay at 50 nM. Compared with the last molecule, the IC50 is about 5-fold higher.

With `CC1=C(N2C(=O)C3(CCN(C[C@@H](O)c4cnc(-n5cnnn5)cn4)CC3)CC2C)COC1=O` (single isomer, unassigned) [Example 68], inhibition was half-maximal at 230 nM (IC50).

On to `CC1CC2(CC3CCC(C2)N3C[C@H](O)c2ccc(-n3cnnn3)nc2)C(=O)N1C1=CC(=O)OC1` (single isomer, unassigned) [Example 100], for which the IC50 was found to be 10 nM. Molecule `O=C1C=C(N2CCC3(CCN(C[C@H](O)c4cnc(-n5cnnn5)nc4)CC3)C2=O)CO1` [Example 9, 8-{(2R)-2-hydroxy-2-[2-(1H-tetrazol-1-yl)pyrimidin-5-yl]ethyl}-1-oxo-2-(5-oxo-2,5-dihydrofuran-3-yl)-2-aza-8-azoniaspiro[4.5]decane] returned an IC50 of 80 nM.

The molecule `CC1=C(N2CCC3(CCN(C[C@@H](O)c4ncc(-n5cnnn5)cc4C)CC3)C2=O)COC1=O` [Example 29, 8-{(2R)-2-hydroxy-2-[3-methyl-5-(1H-tetrazol-1-yl)pyridin-2-yl]ethyl}-2-(4-methyl-5-oxo-2,5-dihydrofuran-3-yl)-1-oxo-2-aza-8-azoniaspiro[4.5]decane] gave an IC50 of 40 nM. For the molecule `CC1=C(N2CCC3(CCN(C[C@@H](O)c4cnc(-n5cnnn5)c(C)n4)CC3)C2=O)COC1=O` [Example 88, 8-{(2R)-2-hydroxy-2-[6-methyl-5-(1H-tetrazol-1-yl)pyrazin-2-yl]ethyl}-2-(4-methyl-5-oxo-2,5-dihydrofuran-3-yl)-1-oxo-2-aza-8-azoniaspiro[4.5]decane], the IC50 was 40 nM.

`CC1=C(N2C=CC3(CCN([C@@H](C)Cc4nnc(-n5cnnn5)cc4C)CC3)C2=O)COC1=O` (single isomer, unassigned) [Example 274]: it took 10 nM to reach half-maximal inhibition (IC50).

Turning to `CC1=C(N2CCC3(CCN(C[C@@H](O)c4ccc(-n5cnnn5)nc4C)CC3)C2=O)COC1=O` [Example 21, 8-{(2S)-2-hydroxy-2-[2-methyl-6-(1H-tetrazol-1-yl)pyridin-3-yl]ethyl}-2-(4-methyl-5-oxo-2,5-dihydrofuran-3-yl)-1-oxo-2-aza-8-azoniaspiro[4.5]decane], the IC50 amounted to 40 nM.

Values taken from patent US9765074B2, “Inhibitors of the renal outer medullary potassium channel” (Merck Sharp & Dohme Corp., priority 2013, dated 2017).
